Values belong to the compound of their own block, whether it stands above or below them.
Tests used:
[1] = test system: rat model of endotoxin induced uveitis; assay: Rat model of endotoxin-induced uveitis (EIU), topical or intravitreal treatment; type: in vivo, female Lewis rats
Description: An in vivo study was conducted to assess the efficacy of intravitreal administration of compound I-22 in a rat model of endotoxin induced uveitis, one of the most appropriate models for the study of NIU (Smith et al., 1998) (Toxikon Study 16-04078-N1). Ocular inflammation was induced in female Lewis rats (n=10/group) by a single foot pad injection of LPS (100 μL) (Herbort et al., 1988, Graefe's Arch Clin Exp Ophthalmol. 226:553-558). Compound I-22 (5 mg/mL) was administered intravitreally into each eye (25 μg/eye), or topically to both eyes at 1, 3, 7, 10, and 17 hours post-LPS injection, within one hour of LPS administration. Balanced salt solution (BSS) served as a vehicle control. Retinal exams were performed prior to study start and six and 24 hours following LPS administration and scored using a Combined Draize and McDonald Shadduck scoring system, based on assessments of: retinal vasculopathy and retinal hemorrhage, exudate, and detachment.
Endotoxin-induced uveitis was created by a single injection of lipopolysaccharide (LPS; 100 μL) into one hind footpad. Ten (10) female Lewis rats per group received control (balanced salt solution, BSS) or test article (compound I-22) topically to both eyes at 1, 3, 7, 10, and 17 hours post-LPS injection. At each dosing time point, two drops (5 μL each, separated by approximately two minutes, for a total of 10 μL/eye/dose) were instilled into each eye of the animals. Ten female Lewis rats per group received control (BSS) or compound I-22 by a single intravitreal injection (IVT) in each eye at one hour post-LPS injection. Each eye received 5 μL of vehicle or test article.
Animals were anesthetized with isoflurane 1-3.5% for ophthalmic examinations. Both eyes of each animal were evaluated pre-dose using slit-lamp biomicroscopy, and an indirect ophthalmoscope or a surgical microscope, according to the Combined Draize and McDonald-Shadduck Scoring System, and the Ocular Posterior Segment Scoring Scale. All pupils were dilated with 1% tropicamide ophthalmic solution before ocular examination. Only rats showing no signs of eye irritation, ocular defects or preexisting corneal injury were used in the study.
Ophthalmic examinations were performed on both eyes of each animal approximately six and 24 hours following LPS administration, using slit-lamp biomicroscopy and a surgical microscope or via indirect ophthalmoscopy. Pupils were dilated with 1% Tropicamide Ophthalmic Solution before ophthalmic examinations.
Quantitative, continuous data from this study were analyzed using one-way ANOVA. Alternative or additional statistical methods were used as necessary.
In the same study, the efficacy of compound 1-5 was compared to that of compound 1-22. Compound 1-5 was topically administered topically to the eye at hours 1, 3, 7, 10, and 17, after LPS induction, or by a single intravitreal (IVT) injection one hour after LPS induction (n=10 per group), as was compound I-22. Ocular exams were performed 6 and 24 hours after LPS injection. Anterior segments were scored using a combined Draize and McDonald-Shadduck scoring system, and posterior segments were scored using 0 to 1 (vitreous, optic disc, retinal vasculature) and 0 to 4 (retinal and choroidal hemorrhage, exudation, and detachment) scales. Statistical significance from vehicle control was determined by ANOVA, followed by Tukey's post hoc test.

[2] = test system: dextran sulfate sodium (DSS)-induced acute ulcerative colitis (UC); assay: 7-Day DSS-induced acute ulcerative colitis model; type: in vivo, female Swiss Webster mice; details: for Body weights: 200 mg/kg PO BID (Groups 5, 6, 7, 8, 9, and 10)
[3] = test system: Dry Eye Disease (DED); assay: Phase 2b clinical study of I-5 Ophthalmic Solution (0.25% and 0.1%) vs vehicle in subjects with dry eye disease; type: in vivo, human; details: for Reason for Study Withdrawal: Adverse Events / Study Completion: Discontinued: N = 100
From the text: Objectives: • To evaluate the efficacy of I-5 Ophthalmic Solutions (0.25% and 0.1%) on baseline to weeks 2, 4, 8, and 12 change scores for sign and symptom endpoints of dry eye disease. • To evaluate effect sizes for efficacy endpoints of I-5 Ophthalmic Solutions (0.25% and 0.1%) vs vehicle for the treatment of the signs and symptoms of dry eye disease to confirm the endpoint selection and sample size for Phase 3 studies. • To evaluate the safety and tolerability of I-5 Ophthalmic Solutions (0.25% and 0.1%) to vehicle for the treatment of the signs and symptoms of dry eye disease.
Treatment: During the 12-week (84±3 days) treatment period, I-5 Ophthalmic Solution at concentrations of 0.1%, 0.25%, or vehicle ophthalmic solution was administered QID by bilateral topical ocular dosing. Subjects were randomized to one of three treatment groups (1:1:1) to receive study drug after the Post-CAE® assessments at Visit 2.
Summary of Visit Schedule: Six visits over the course of approximately 14 weeks • Visit 1=Day −14±2, CAE® Screening • Visit 2=Day 1, CAE® Confirmation/Baseline • Visit 3=Day 15±2, 2-Week Follow-Up • Visit 4=Day 29±2, 4-Week Follow-Up • Visit 5=Day 57±3, 8-Week Follow-Up • Visit 6=Day 85±3, 12-Week CAE® Follow-Up & Study Exit
Note: a subject could not have an Ocular Discomfort score of 4 at time=0); • 12 Had at least one eye, the same eye, satisfy all criteria for 6, 7, 8, 9, 10, and 11 above.
Safety Measures: • Visual acuity • Slit-lamp evaluation • Adverse event query • Intraocular Pressure (IOP) • Dilated fundoscopy
Efficacy Analysis • Evaluated baseline to weeks 2, 4, 8 and 12 change scores with I-5 on DED sign and symptom endpoints (both pre-CAE and CAE endpoints). Each endpoint was analyzed at a two-sided alpha level of 0.05, and the overall type I error was not controlled for in this investigative study. • Evaluated effect size of baseline to weeks 2, 4, 8 and 12 change scores of I-5 vs vehicle on DED sign and symptom endpoints (both pre-CAE and CAE endpoints) to confirm the endpoint selection for primary outcome parameters and sample size for Phase 3 studies with I-5. • Sub-group analyses on effect size of baseline to weeks 2, 4, 8 and 12 change scores of I-5 vs vehicle on DED sign and symptom endpoints (both pre-CAE and CAE endpoints) [Subgroups were prospectively detailed in the Statistical Analysis Plan (SAP)].

[4] = intravitreal administration, vs vehicles
[5] = 200 mg/kg PO BID, Days −3 through 6, vs PO vehicle
[6] = 0.25% group, majority (>50-100%) of effect vs vehicle at first study endpoint (Week 2 or 4)
[7] = 100 mg/kg IP QD, Days 0 through 6, vs IP vehicle
[8] = 200 mg/kg PO BID, Days 0 through 6, vs PO vehicle

Study Completion: Discontinued ([3]; 0.1% QID): 3 (3.0%)
Study Completion: Discontinued ([3]; 0.25% QID): 12 (12.0%)
Compound: CC(C)(O)c1nc2ccc(Cl)cc2cc1N [Compound I-5]
ocular exam scores ([1]; IVT, vs vehicle): significantly improved
Total ocular inflammation [1, 4]: lower
anterior chamber inflammation [1, 4]: lower
retina-choroid inflammation [1, 4]: lower
signs of inflammation in the rat EIU model ([1]; overall): reduced
response in the EIU model ([1]; overall, I-22 compared with I-5): positive response
ocular exam scores ([1]; topical (TO), 6 hours and 24 hours, vs vehicle): significantly improved
Total ocular inflammation score ([1]; topical (TO), vs vehicle): lower
anterior chamber inflammation score ([1]; topical (TO), vs vehicle): lower
retina-choroid inflammation score ([1]; topical (TO), vs vehicle): lower
Body weights ([2]; vs PO vehicle): did not differ significantly
proximal colon edema, reduction [2, 5]: 63%
proximal colon erosion, reduction [2, 5]: 73%
Reason for Study Withdrawal: Adverse Events ([3]; 0.1% QID): 2 (2.0%)
effects at later time points ([3]; 0.1%, clearest with signs, especially ocular staining): Matched Higher Dose Effects at Later Time Points
Reason for Study Withdrawal: Adverse Events ([3]; 0.25% QID): 10 (10.0%)
early onset of effect, sign endpoints (Lissamine green total score, fluorescein total score, tear osmolarity positive; TFBUT negative) [3, 6]: Positive early onset for 3 out of 4 sign endpoints
early onset of effect, symptom endpoints (ODS, OD4SQ, OSDI positive; SANDE negative) [3, 6]: Positive early onset for 3 out of 4 symptom endpoints
Fluorescein Staining: Central (0-4); Dose Trend? ([3]; ITT, observed data only): ✓
Fluorescein Staining: Central (0-4); Drug Trend? ([3]; ITT, observed data only): ✓
Fluorescein Staining: Conjunctival Sum Score (Nasal and Temporal) (0-8; Σ 2×); Dose Trend? ([3]; ITT, observed data only): ✓
Fluorescein Staining: Conjunctival Sum Score (Nasal and Temporal) (0-8; Σ 2×); Drug Trend? ([3]; ITT, observed data only): ✓
Fluorescein Staining: Corneal Sum Score (Inferior, Superior, and Central) (0-12; Σ 3×); Drug Trend? ([3]; ITT, observed data only): ✓
Fluorescein Staining: Inferior (0-4); Drug Trend? ([3]; ITT, observed data only): ✓
Fluorescein Staining: Nasal (0-4); Dose Trend? ([3]; ITT, observed data only): ✓
Fluorescein Staining: Nasal (0-4); Drug Trend? ([3]; ITT, observed data only): ✓
Fluorescein Staining: Temporal (0-4); Dose Trend? ([3]; ITT, observed data only): ✓
Fluorescein Staining: Temporal (0-4); Drug Trend? ([3]; ITT, observed data only): ✓
Fluorescein Staining: Total Score (all five regions) (0-20; Σ 5×); Drug Trend? ([3]; ITT, observed data only): ✓
OD & 4-Symptom Questionnaire: Burning (0-5); Drug Trend? ([3]; ITT, observed data only): ✓
OD & 4-Symptom Questionnaire: Dryness (0-5); Dose Trend? ([3]; ITT, observed data only): ✓
OD & 4-Symptom Questionnaire: Dryness (0-5); Drug Trend? ([3]; ITT, observed data only): ✓
OD & 4-Symptom Questionnaire: Grittiness (0-5); Dose Trend? ([3]; ITT, observed data only): ✓
OD & 4-Symptom Questionnaire: Grittiness (0-5); Drug Trend? ([3]; ITT, observed data only): ✓
OD & 4-Symptom Questionnaire: Overall Ocular Discomfort (0-5); Dose Trend? ([3]; ITT, observed data only): ✓
OD & 4-Symptom Questionnaire: Overall Ocular Discomfort (0-5); Drug Trend? ([3]; ITT, observed data only): ✓
OD & 4-Symptom Questionnaire: Stinging (0-5); Dose Trend? ([3]; ITT, observed data only): ✓
OD & 4-Symptom Questionnaire: Stinging (0-5); Drug Trend? ([3]; ITT, observed data only): ✓
Ocular Discomfort Scale (0-4); Dose Trend? ([3]; ITT, observed data only): ✓
Ocular Discomfort Scale (0-4); Drug Trend? ([3]; ITT, observed data only): ✓
Ocular Surface Disease Index (OSDI) (0-100); Dose Trend? ([3]; ITT, observed data only): ✓
Ocular Surface Disease Index (OSDI) (0-100); Drug Trend? ([3]; ITT, observed data only): ✓
Osmolarity (mOsm/L); Drug Trend? ([3]; ITT, observed data only): ✓
SANDE Questionnaire Frequency (0-100 mm); Drug Trend? ([3]; ITT, observed data only): ✓
SANDE Questionnaire Severity (0-100 mm); Dose Trend? ([3]; ITT, observed data only): ✓
SANDE Questionnaire Severity (0-100 mm); Drug Trend? ([3]; ITT, observed data only): ✓
Schirmer’s Test (mm); Dose Trend? ([3]; ITT, observed data only): ✓
Schirmer’s Test (mm); Drug Trend? ([3]; ITT, observed data only): ✓
Tear Film Break-up Time (sec); Dose Trend? ([3]; ITT, observed data only): ✓
Usamine Green Staining: Central (0-4); Dose Trend? ([3]; ITT, observed data only): ✓
Usamine Green Staining: Central (0-4); Drug Trend? ([3]; ITT, observed data only): ✓
Usamine Green Staining: Conjunctival Sum Score (Nasal and Temporal) (0-8; Σ 2×); Dose Trend? ([3]; ITT, observed data only): ✓
Usamine Green Staining: Conjunctival Sum Score (Nasal and Temporal) (0-8; Σ 2×); Drug Trend? ([3]; ITT, observed data only): ✓
Usamine Green Staining: Corneal Sum Score (Inferior, Superior, and Central) (0-12; Σ 3×); Dose Trend? ([3]; ITT, observed data only): ✓
Usamine Green Staining: Corneal Sum Score (Inferior, Superior, and Central) (0-12; Σ 3×); Drug Trend? ([3]; ITT, observed data only): ✓
Usamine Green Staining: Inferior (0-4); Dose Trend? ([3]; ITT, observed data only): ✓
Usamine Green Staining: Inferior (0-4); Drug Trend? ([3]; ITT, observed data only): ✓
Usamine Green Staining: Nasal (0-4); Dose Trend? ([3]; ITT, observed data only): ✓
Usamine Green Staining: Nasal (0-4); Drug Trend? ([3]; ITT, observed data only): ✓
Usamine Green Staining: Superior (0-4); Dose Trend? ([3]; ITT, observed data only): ✓
Usamine Green Staining: Temporal (0-4); Dose Trend? ([3]; ITT, observed data only): ✓
Usamine Green Staining: Temporal (0-4); Drug Trend? ([3]; ITT, observed data only): ✓
Usamine Green Staining: Total Score (all five regions) (0-20; Σ 5×); Dose Trend? ([3]; ITT, observed data only): ✓
Usamine Green Staining: Total Score (all five regions) (0-20; Σ 5×); Drug Trend? ([3]; ITT, observed data only): ✓
Dose Response ([3]; between 0.1% and 0.25% dose strengths): Demonstrated

Compound: CC(C)(O)c1nc2ccccc2cc1N [Compound I-6]
Colon lengths, increase in the direction of normal [2, 7]: 56%
Colon weight-to-length ratios, reduction in the direction of normal [2, 7]: 35%
DAI score of occult/gross blood in stool, AUC [2, 7]: significantly lower
DAI score of stool consistency, area under the curve (AUC) [2, 7]: significantly lower
DAI summed scores, AUC [2, 7]: significantly lower
full colon PMN percentages, reduction [2, 7]: 53%
full colon edema, reduction [2, 7]: 53%
full colon erosion, reduction [2, 7]: 91%
full colon gland loss, reduction [2, 7]: 82%
full colon inflammation, reduction [2, 7]: 56%
full colon lymphoid aggregate counts, reduction [2, 7]: 113%
full colon neutrophil scores, reduction [2, 7]: 73%
full colon summed scores, reduction [2, 7]: 68%
proximal colon gland loss, reduction [2, 7]: 57%
proximal colon inflammation, reduction [2, 7]: 32%
proximal colon lymphoid aggregate counts, reduction [2, 7]: 107%
proximal colon summed scores, reduction [2, 7]: 36%
Body weight loss ([2]; 100 mg/kg IP QD, Days 0 through 6, vs IP vehicle (SBECD)): significantly inhibited
Body weights ([2]; vs PO vehicle): did not differ significantly
full colon edema, reduction [2, 8]: 44%
proximal colon edema, reduction [2, 8]: 48%
proximal colon inflammation, reduction [2, 8]: 36%
full colon edema, reduction [2, 5]: 58%
proximal colon edema, reduction [2, 5]: 41%
proximal colon erosion, reduction [2, 5]: 75%
DAI stool consistency scores ([2]; Day 2, 100 mg/kg IP QD, Days 0 through 6, vs IP vehicle): significantly reduced
DAI summed scores ([2]; Day 6, 100 mg/kg IP QD, Days 0 through 6, vs IP vehicle): significantly reduced
DAI occult/gross blood in stool scores ([2]; Days 4 and 6, 100 mg/kg IP QD, Days 0 through 6, vs IP vehicle): significantly reduced

Reference: patent publication US11583529B2, “Treatment of inflammatory disorders” (Aldeyra Therapeutics, Inc., priority 2017, dated 2023)
